The values below come from patent US8431593B2, “Heteroaryl amide derivatives” (H. Lundbeck A/S, priority 2006, dated 2013).

Molecules are shown by their SMILES. A value given as a limit tells only on which side of the number the result lay.

The first assay addresses T1, P2X7 receptor (Homo sapiens, UniProt Q99572).
T1 construct: host or cells: SH-SY5Y
T1 sequence (Q99572 1-595): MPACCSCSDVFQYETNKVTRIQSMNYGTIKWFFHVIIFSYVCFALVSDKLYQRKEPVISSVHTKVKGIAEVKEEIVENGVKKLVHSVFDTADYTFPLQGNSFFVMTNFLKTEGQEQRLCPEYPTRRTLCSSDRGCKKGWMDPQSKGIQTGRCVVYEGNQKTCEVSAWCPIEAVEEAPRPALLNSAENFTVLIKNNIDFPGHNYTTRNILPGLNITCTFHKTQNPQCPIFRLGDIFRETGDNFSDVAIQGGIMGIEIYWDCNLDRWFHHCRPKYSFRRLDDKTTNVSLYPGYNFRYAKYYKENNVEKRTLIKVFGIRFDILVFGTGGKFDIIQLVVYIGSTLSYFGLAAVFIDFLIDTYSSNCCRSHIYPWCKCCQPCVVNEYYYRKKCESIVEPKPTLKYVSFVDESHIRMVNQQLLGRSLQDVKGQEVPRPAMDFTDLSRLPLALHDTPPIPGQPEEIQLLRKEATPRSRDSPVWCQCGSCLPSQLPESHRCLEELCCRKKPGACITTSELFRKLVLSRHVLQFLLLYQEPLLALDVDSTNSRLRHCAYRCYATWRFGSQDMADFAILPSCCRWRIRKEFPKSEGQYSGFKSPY
Briefly: P2X7 calcium mobilization assay, high throughput, antagonist activity (Example 4A). The assay is classed as cell-based.
Details: not given
Put shortly:
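Antagonism was measured as calcium fluorescence (FLIPR Tetra) in cells seeded one day earlier at 100,000/well, loaded with dye for 1 h and exposed to compound for 1 h at room temperature before agonist. Peak RFU, minus the no-agonist background, was referenced to the mean of the agonist wells.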
A general note: Calcium assays in cells follow changes in intracellular calcium, usually with a dye or a luminescent sensor.
In general, IC50 refers to the midpoint of a concentration-inhibition curve. As for `NCCCNCc1cn2c(C(=O)NCC34CC5CC(CC(C5)C3)C4)cccc2n1` [Compound 123, N-(adamantan-1-ylmethyl)-2-{[(3-aminopropyl)amino]methyl}imi-dazo[1,2-a]pyridine-5-carboxamide], the IC50 was < 2000 nM.

The same assay, now with this note: 50% decrease in the fluorescence response of cells exposed to 80 μM 2′(3′)-O-(4-benzoyl-benzoyl)adenosine 5′-triphosphate; Example 4A; read-out: IC50.
On to `CC(C)(CO)NC(=O)c1cn2c(NC(=O)CC34CC5CC(CC(C5)C3)C4)cccc2n1` [Compound 437, 5-[(adamantan-1-ylacetyl)amino]-N-(2-hydroxy-1,1-dimethylethyl)imidazo [1,2-a]pyridine-2-carboxamide], for which the IC50 was < 2000 nM.

`CC1(C)[C@H]2CC[C@@H](CNC(=O)c3cccc4nc(C(=O)N[C@@H]5CCCC[C@H]5O)cn34)[C@@H]1C2` [Compound 519, 5-N-{[(1S,2R,5S)-6,6-dimethylbicyclo[3.1.1]hept-2-yl]methyl}-2-N-[(1R,2R)-2-hydroxycyclohexyl] imidazo[1,2-a]pyridine-2,5-dicarboxamide]: the IC50 is < 2000 nM.

The same assay, now with this note: 50% decrease in the fluorescence response of cells exposed to 80 μM of 2′(3′)-O-(4-benzoyl-benzoyl)adenosine 5′-triphosphate; Example 4A; read-out: IC50.
Turning to `CC(CC#N)c1cn2c(C(=O)NCC34CC5CC(CC(C5)C3)C4)cccc2n1` (centres unmarked) [Compound 748, N-(adamantan-1-ylmethyl)-2-(2-cyano-1-methylethyl) imidazo[1,2-a]pyridine-5-carboxamide], the IC50 is < 2000 nM.

`O=C(NCC12CC3CC(CC(C3)C1)C2)c1cccc2nc(C(Cc3ccccn3)C(=O)O)cn12` (centres unmarked) [Compound 732, 2-{5-[(adamantan-1-ylmethyl)carbamoyl]imidazo[1,2-a]pyridin-2-yl}-3-pyridin-2-ylpropanoic acid]: the half-inhibitory concentration (IC50) is < 2000 nM.

In the case of `CCc1ccc(CN(C)C(=O)c2cn3c(C(=O)NCC45CC6CC(CC(C6)C4)C5)cccc3n2)nc1` [Compound 713, 5-N-(adamantan-1-ylmethyl)-2-N-[(5-ethylpyridin-2-yl)methyl]-2-N-methylimidazo[1,2-a]pyridine-2,5-dicarboxamide], the IC50 was < 2000 nM.

Turning to `CN(C)CC(C)(C)CNC(=O)c1cn2c(C(=O)NCC34CC5CC(CC(C5)C3)C4)cccc2n1` [Compound 644, 5-N-(adamantan-1-ylmethyl)-2-N-[3-(dimethylamino)-2,2-dimethylpropyl] imidazo[1,2-a] pyridine-2,5-dicarboxamide], the IC50 was < 2000 nM.

The same assay, now with this note: 50% decrease in the fluorescence response of cells exposed to 80 μM of 2′(3′)-O-(4-benzoyl-benzoyl)adenosine 5′-triphosphate; determined as in Example 4A; read-out: IC50.
As for `CCC(C)NC(=O)Cc1cn2c(C(=O)NCC3(c4cccnc4)CCCCC3)cccc2n1` (centres unmarked) [Compound 869, 2-[2-(sec-butylamino)-2-oxoethyl]-N-[(1-pyridin-3-ylcyclohexyl)methyl] imidazo[1,2-a] pyridine-5-carboxamide], the IC50 was < 2000 nM.

Regarding `CCOC(=O)C(Cc1ccccc1)c1cn2c(C(=O)NCC(CC(C)C)c3ccc(Cl)cc3)cccc2n1` (centres unmarked) [Compound 931, ethyl 2-(5-{[2-(4-chlorophenyl)-4-methylpentyl]carbamoyl}imidazo[1,2-a]pyridin-2-yl)-3-phenylpropanoate], the IC50 was < 2000 nM.

With `O=C(NCC1(c2ccc(C(F)(F)F)cc2)CCCCC1)c1cccc2nc(CC(=O)N3CCSCC3)cn12` [Compound 889, 2-(2-oxo-2-thiomorpholin-4-ylethy)-N-({1-[4-(trifluoromethyl)phenyl]cyclohexyl}methyl) imidazo[1,2-a] pyridine-5-carboxamide], the IC50 was < 2000 nM.

For the compound `O=C(NCC12CC3CC(CC(C3)C1)C2)c1cccc2nc(C(=O)n3ccc(N4CCNC4=O)n3)cn12` [Compound 826, N-(adamantan-1-ylmethyl)-2-{[3-(2-oxoimidazolidin-1-yl)-1H-pyrazol-1-yl]carbonyl}imidazo [1,2-a]pyridine-5-carboxamide], the 50% inhibitory concentration (IC50) is < 2000 nM.

Still in this assay, the particulars now being: P2X7 calcium mobilization, Example 4A; 50% decrease in the fluorescence response of cells exposed to 80 μM of (2′(3′)-O-(4-benzoyl-benzoyl)adenosine 5′-triphosephate); read-out: IC50.
For the compound `O=C(NCC1(c2ccc(C(F)(F)F)cc2)CCCCC1)c1cccc2nc(C(F)(F)F)cn12` [Compound 1018, 2-(trifluoromethyl)-N-({1-[4-(trifluoromethyl)phenyl]cyclohexyl}methyl) imidazo [1,2-a]pyridine-5-carboxamide], the IC50 is < 2000 nM.

With `O=C(NCC12CC3CC(CC(C3)C1)C2)c1cccc2nc(CCN3CCCC3)cn12` [Compound 1040, N-(adamantan-1-ylmethyl)-2-(2-pyrrolidin-1-ylethyl) imidazo [1,2-a]pyridine-5-carboxamide], the IC50 is < 2000 nM.

For `O=C(NCC(c1ccc(Cl)cc1)N1CCCCC1)c1cccc2ncc(Br)n12` (centres unmarked) [Compound 1056, 3-bromo-N-[2-(4-chlorophenyl)-2-piperidin-1-ylethyl]imidazo[1,2-a]pyridine-5-carboxamide], the IC50 is < 2000 nM.

The same assay, now with this note: SH-SY5Y cells; 50% decrease in fluorescence response to 80 μM BzATP; read-out: IC50.
As to `CC(C)C(=O)N[C@@H]1CCN(Cc2cn3c(C(=O)NCC45CC6CC(CC(C6)C4)C5)cccc3n2)C1` (stereo in doubt) [Compound 71, N-(adamantan-1-ylmethyl)-2-{[3-(isobutyryl-amino)pyrrolidin-1-yl]methyl}imidazo[1,2-a]pyridine-5-carboxamide], the IC50 is < 2000 nM.

Take `O=C1CN(C(=O)c2cn3c(C(=O)NCC45CC6CC(CC(C6)C4)C5)cccc3n2)CCN1` [Compound 99, N-(adamantan-1-ylmethyl)-2-[(3-oxopiperazin-1-yl)carbonyl]imidazo[1,2-a]pyridine-5-carboxamide]: the IC50 was < 2000 nM.

For the compound `CN(C)C1CCN(C(=O)c2cn3c(C(=O)NCC45CC6CC(CC(C6)C4)C5)cccc3n2)C1` (centres unmarked) [Compound 93, N-(adamantan-1-ylmethyl)-2-{[3-(dimethyl-amino)pyrrolidin-1-yl]carbonyl}imidazo[1,2-a]pyridine-5-carboxamide], the IC50 was < 2000 nM.

Take `O=C(Cc1cn2c(C(=O)NCC34CC5CC(CC(C5)C3)C4)cccc2n1)NCC(F)(F)F` [Compound 158, N-(adamantan-1-ylmethyl)-2-{2-oxo-2-[(2,2,2-trifluoroethyl)amino]eth-yl}imidazo[1,2-a]pyridine-5-carboxamide]: the half-maximal inhibitory concentration (IC50) was < 2000 nM.

Staying with this assay, now noted: fluorescence response of cells exposed to 80 μM 2′(3′)-O-(4-benzoyl-benzoyl)adenosine 5′-triphosphate; Example 4A; read-out: IC50.
As for `COC(=O)CN(C)C(=O)c1cn2c(NC(=O)CC34CC5CC(CC(C5)C3)C4)cccc2n1` [Compound 377, methyl N-({5-[(adamantan-1-ylacetyl)amino]imidazo[1,2-a]pyridin-2-yl}carbonyl)-N-methylglycinate], the IC50 is < 2000 nM.

As for `COCCN(C)C(=O)c1cn2c(NC(=O)CC34CC5CC(CC(C5)C3)C4)cccc2n1` [Compound 366, 5-[(adamantan-1-ylacetyl)amino]-N-(2-methoxyethyl)-N-methylimidazo[1,2-a]pyridine-2-carboxamide], the IC50 is < 2000 nM.

Regarding `CN(C)CCN(C(=O)c1cn2c(C(=O)NC[C@@H]3CC[C@H]4C[C@@H]3C4(C)C)cccc2n1)C1CCNCC1(C)C` (stereo partly drawn) [Compound 319, 2-N-[2-(dimethylamino)ethyl]-5-N-{[(1S,2R,5S)-6,6-dimethylbicyclo[3.1.1]hept-2-yl]methyl}-2-N-(3,3-dimethylpiperidin-4-yl)imidazo[1,2-a]pyridine-2,5-dicarboxamide], the IC50 was < 2000 nM.

As for `CCOC(=O)CN(C)Cc1cn2c(C(=O)NCC34CC5CC(CC(C5)C3)C4)cccc2n1` [Compound 341, ethyl N-({5-[(adamantan-1-ylmethyl)carbamoyl]imidazo[1,2-a]pyridin-2-yl}methyl)-N-methylglycinate], the IC50 is < 2000 nM.

For `CC(C)(C)NCCOC(=O)c1cn2c(NC(=O)CC34CC5CC(CC(C5)C3)C4)cccc2n1` [Compound 411, 2-(tert-butylamino)ethyl 5-[(adamantan-1-ylacetyl)amino] imidazo [1,2-a]pyridine-2-carboxylate], the 50% inhibitory concentration (IC50) was < 2000 nM.
